Data published in patent publication US20260224688A1, “HELPER LIPIDS FOR NUCLEIC ACID DELIVERY” (SANOFI PASTEUR INC., priority 2023, published 2026).

Key:
hEPO [1] = test: IV EPO expression of LNPs (tail vein injection); assay type: in vivo, female BALB/cJ mice; settings: cationic lipid CL-0137, helper lipid 30 mol %; 0.017 μg EPO mRNA tail vein; 6 hours; DOPE = 1
Method: Lipid nanoparticles were formulated containing the four lipid components shown below at a ratio of 40:30:28.5:1.5, complexed with a hEPO messenger RNA. • Cationic lipid CL-0137, 40 mol % • Helper lipid, 30 mol % • Cholesterol, 28.5 mol % • DMG-PEG-2K (1,2-dimyristoyl-rac-glycero-3-methoxypolyethyleneglycol), 1.5 mol %
EPO expression studies were conducted with female BALB/cJ mice 6-8 weeks of age. Mice were dosed with 0.017 μg EPO mRNA LNPs in a volume of 5 ul by a single tail vein injection. Blood samples were taken 6 hours post injection and hEPO levels were measured in the blood serum of the mice using an ELISA assay according to the manufacture's protocol.

[2] = mRNA encapsulation efficiency of lipid nanoparticles; assay type: physicochemical; settings: for Encapsulation efficiency (EE): LNP with cationic lipid CL-A
Text: In embodiments, the lipid nanoparticle encapsulates a nucleic acid, optionally an mRNA encoding a peptide or protein. In embodiments, the lipid nanoparticle encapsulates an mRNA encoding a peptide or protein, optionally for use in a vaccine. In embodiments, the peptide is an antigen. As used herein, the phrase “encapsulation percentage” refers to the fraction of therapeutic agent (e.g. mRNA) that is effectively encapsulated within a liposomal-based vehicle (e.g. a lipid nanoparticle) relative to the initial fraction of therapeutic agent present in the lipid phase. In embodiments, the lipid nanoparticles have an encapsulation percentage for mRNA of at least 50%. In embodiments, the lipid nanoparticles have an encapsulation percentage for mRNA of at least 55%. In embodiments, the lipid nanoparticles have an encapsulation percentage for mRNA of at least 60%. In embodiments, the lipid nanoparticles have an encapsulation percentage for mRNA of at least 65%. In embodiments, the lipid nanoparticles have an encapsulation percentage for mRNA of at least 70%. In embodiments, the lipid nanoparticles have an encapsulation percentage for mRNA of at least 75%. In embodiments, the lipid nanoparticles have an encapsulation percentage for mRNA of at least 80%. In embodiments, the lipid nanoparticles have an encapsulation percentage for mRNA of at least 85%. In embodiments, the lipid nanoparticles have an encapsulation percentage for mRNA of at least 90%. In embodiments, the lipid nanoparticles have an encapsulation percentage for mRNA of at least 95%. In embodiments, the encapsulation percentage is calculated by performing the Ribogreen assay (Invitrogen) with and without the presence of 0.1% Triton-X 100.
The lipid nanoparticles in the examples of the present invention were formulated using Process A of WO 2018/089801 (see, e.g., Example 1 and FIG. 1 of WO 2018/089801). Process A (“A”) relates to a conventional method of encapsulating mRNA by mixing mRNA with a mixture of lipids, without first pre-forming the lipids into lipid nanoparticles. In an exemplary process, an ethanolic solution of a mixture of lipids (cationic lipid, phosphatidylethanolamine, cholesterol, and polyethylene glycol-lipid) at a fixed lipid to mRNA ratio were combined with an aqueous buffered solution of target mRNA at an acidic pH under controlled conditions to yield a suspension of uniform LNPs. After ultrafiltration and diafiltration into a suitable diluent system, the resulting nanoparticle suspensions were diluted to final concentration, filtered, and stored frozen at −80° C. until use.
(§1) Lipid nanoparticle formulations 3 were prepared by Process A at a molar ratio of 40:1.5:30:28.5 (Cationic Lipid: DMG-PEG2000: Cholesterol: Helper Lipid) with the cationic lipids and helper lipids disclosed in the tables below. The Polydispersity Index (Pdl) of lipid nanoparticles can be determined by diluting the formulation in 10% trehalose at about 0.1 mg/ml mRNA concentration and then measuring the size on Malvern zetasizer. The lipid nanoparticle size can be obtained with Malvern Zetasizer Nano-ZS.

[3] = Dynamic light scattering of lipid nanoparticles (size, PDI); assay type: physicochemical
Method: as §1
Dynamic light scattering (DLS) measurements were performed using a Malvern Instruments Zetasizer with a backscattering detector angle of 173° and a 4-mW, 633-nm He—Ne laser (Worcestershire, UK). The samples were analyzed by diluting in 10% Trehalose and measuring the size and Poly dispersity Index (PDI) in an optical grade polystyrene cuvette.

hEPO [4] = test: IM EPO expression of LNPs containing new helper lipids (hEPO in serum by ELISA); assay type: in vivo, female BALB/cJ mice; settings: single IM injection
Method: Lipid nanoparticles were formulated containing the four lipid components shown below at a ratio of 40:30:28.5:1.5, complexed with a hEPO messenger RNA. • Cationic lipid, 40 mol % • Phospholipid (PEA) helper lipid, 30 mol % • Cholesterol, 28.5 mol % • DMG-PEG-2K (1,2-dimyristoyl-rac-glycero-3-methoxypolyethyleneglycol), 1.5 mol % The cationic lipid component of each formulation was selected from the compounds in the table below: […]
EPO expression studies were conducted with female BALB/cJ mice 6-8 weeks of age. Mice were dosed with […] EPO mRNA in 30 μL of LNPs by a single intramuscular (IM) injection into the gastrocnemius leg muscle. Blood samples were taken 6 and 24 hours post injection and hEPO levels were measured in the blood serum of the mice using an ELISA assay according to the manufacture's protocol. WO2022/099003 A1 also describes an in vivo assay for intramuscular administration (e.g. on page 46, paragraph [00206]).

[5] = LNP with cationic lipid CL-A, hEPO mRNA, 40:30:28.5:1.5
[6] = CL-A LNP, 0.1 μg EPO mRNA in 30 μL, serum 6 hours post injection
[7] = CL-B LNP, serum 6 hours post injection

Structure (SMILES) | Normalized Mean IV EPO expression (hEPO [1]) | Encapsulation efficiency (EE) [2] | EE ([2]; LNP with cationic lipid CL-B) | EE ([2]; LNP with cationic lipid CL-C) | Polydispersity Index (PDI) ([3]; LNP with cationic lipid CL-A) | Size [3, 5] | PDI ([3]; LNP with cationic lipid CL-B) | Size ([3]; LNP with cationic lipid CL-B) | PDI ([3]; LNP with cationic lipid CL-C) | Size ([3]; LNP with cationic lipid CL-C) | 6-h EPO (hEPO [4]; [6]) | 6-h EPO (hEPO [4]; [7]) | 6-h EPO (hEPO [4]; CL-C LNP, (6-h))
CCCCCCCCC(CCCCCCCC)OC(=O)CCCCCCC(=O)OC[C@H](COP(=O)(O)OCCN(C)C)OC(=O)CCCCCCC(=O)OC(CCCCCCCC)CCCCCCCC [Compound 14] | 0.95 | 96% | 92% | 91% | 0.068 | 148 nm | 0.067 | 137.0 nm | 0.141 | 101.4 nm | 0 ng/mL | 35.4 ng/mL | 34.6 ng/mL
CCCCCCCCC(CCCCCCCC)OC(=O)CCCCCC(=O)OCC(COP(=O)(O)OCCN(C)C)OC(=O)CCCCCC(=O)OC(CCCCCCCC)CCCCCCCC (centres unmarked) [Compound 15, O′^1,O^1-(3-(((2-(Dimethylamino)ethoxy)(hydroxy)phosphoryl)oxy)propane-1,2-diyl) 7-di(heptadecan-9-yl) di(heptanedioate)] | 2.24 | 95% | 94% | 91% | 0.083 | 138 nm | 0.087 | 110.7 nm | 0.091 | 108.0 nm | 25.3 ng/mL | 30 ng/mL | 15.2 ng/mL
CCCCCCCCC(CCCCCCCC)OC(=O)CCCCCCCC(=O)OCC(COP(=O)(O)OCCN(C)C)OC(=O)CCCCCCCC(=O)OC(CCCCCCCC)CCCCCCCC (centres unmarked) [Compound 16, O′^1,O^1-(3-(((2-(Dimethylamino)ethoxy)(hydroxy)phosphoryl)oxy)propane-1,2-diyl) 9-di(heptadecan-9-yl) di(nonanedioate)] | 1.59 | 95% | 94% | 91% | 0.052 | 128 nm | 0.069 | 108.1 nm | 0.077 | 102.7 nm | 17.4 ng/mL | 32.1 ng/mL | 9.7 ng/mL
CCCCCCCCC(CCCCCCCC)C(=O)OCCCCCC(=O)OCC(COP(=O)(O)OCCN(C)C)OC(=O)CCCCCOC(=O)C(CCCCCCCC)CCCCCCCC (centres unmarked) [Compound 17, ((3-(((2-(Dimethylamino)ethoxy)(hydroxy)phosphoryl)oxy)propane-1,2-diyl)bis(oxy))bis(6-oxohexane-6,1-diyl) bis(2-octyldecanoate)] | 4.53 | 93% | 81% | 60% | 0.071 | 137 nm | 0.022 | 122.7 nm | 0.054 | 110.9 nm | 16.3 ng/mL | 14.5 ng/mL | 31.7 ng/mL
CCCCCCCCC(CCCCCCCC)C(=O)OCCCCCCC(=O)OCC(COP(=O)(O)OCCN(C)C)OC(=O)CCCCCCOC(=O)C(CCCCCCCC)CCCCCCCC (centres unmarked) [Compound 18, ((3-(((2-(Dimethylamino)ethoxy)(hydroxy)phosphoryl)oxy)propane-1,2-diyl)bis(oxy))bis(7-oxoheptane-7,1-diyl) bis(2-octyldecanoate)] | 4.68 | 93% | 89% | 89% | 0.072 | 155 nm | 0.104 | 117.5 nm | 0.104 | 117.5 nm | 30.1 ng/mL | 23.7 ng/mL | 28.8 ng/mL
CCCCCCCCCCC(CCCCCCCCCC)OC(=O)CCCCCCC(=O)OCC(COP(=O)(O)OCCN(C)C)OC(=O)CCCCCCC(=O)OC(CCCCCCCCCC)CCCCCCCCCC (centres unmarked) [Compound 19, O′1,O1-(3-(((2-(dimethylamino)ethoxy)(hydroxy)phosphoryl)oxy)propane-1,2-diyl) 8-di(henicosan-11-yl) di(octanedioate)] | 2.59 | 94% | 93% | 92% | 0.075 | 136 nm | 0.095 | 112.7 nm | 0.078 | 110.6 nm | 11.7 ng/mL | 28.9 ng/mL | 12.9 ng/mL
CCCCCCCCC(CCCCCCCC)OC(=O)CCCCCCC(=O)OCC(COP(=O)(O)OCC[N+](C)(C)C)OC(=O)CCCCCCC(=O)OC(CCCCCCCC)CCCCCCCC (centres unmarked) [Compound 24, 2-(((2,3-Bis((8-(heptadecan-9-yloxy)-8-oxooctanoyl)oxy)propoxy)(hydroxy)-phosphoryl)oxy)-N,N,N-trimethylethan-1-aminium] | 1.82 | 94% | 87% | 85% | 0.055 | 160 nm | 0.111 | 107.0 nm | 0.116 | 108.8 nm | 19.2 ng/mL | 29.4 ng/mL | 19.5 ng/mL
CCCCCCCCC(CCCCCCCC)OC(=O)CCCCCCC(=O)OCC(COP(=O)(O)OCCN(C)CCO)OC(=O)CCCCCCC(=O)OC(CCCCCCCC)CCCCCCCC (centres unmarked) [Compound 25] | 1.24 | 93% | 95% | 93% | 0.121 | 137 nm | 0.151 | 120.1 nm | 0.142 | 92.2 nm | 16.5 ng/mL | 44.5 ng/mL | 56.5 ng/mL
